Test [1] deals with Multidrug resistance-associated protein 1 (Homo sapiens, UniProt P33527). In words: Inhibition of MRP1 expressed in human 2008 cells assessed as calcein AM accumulation by cell based assay.
In test [2] the target is T1, Broad substrate specificity ATP-binding cassette transporter ABCG2 (Homo sapiens, UniProt Q9UNQ0).
T1 sequence (Q9UNQ0 whole entry): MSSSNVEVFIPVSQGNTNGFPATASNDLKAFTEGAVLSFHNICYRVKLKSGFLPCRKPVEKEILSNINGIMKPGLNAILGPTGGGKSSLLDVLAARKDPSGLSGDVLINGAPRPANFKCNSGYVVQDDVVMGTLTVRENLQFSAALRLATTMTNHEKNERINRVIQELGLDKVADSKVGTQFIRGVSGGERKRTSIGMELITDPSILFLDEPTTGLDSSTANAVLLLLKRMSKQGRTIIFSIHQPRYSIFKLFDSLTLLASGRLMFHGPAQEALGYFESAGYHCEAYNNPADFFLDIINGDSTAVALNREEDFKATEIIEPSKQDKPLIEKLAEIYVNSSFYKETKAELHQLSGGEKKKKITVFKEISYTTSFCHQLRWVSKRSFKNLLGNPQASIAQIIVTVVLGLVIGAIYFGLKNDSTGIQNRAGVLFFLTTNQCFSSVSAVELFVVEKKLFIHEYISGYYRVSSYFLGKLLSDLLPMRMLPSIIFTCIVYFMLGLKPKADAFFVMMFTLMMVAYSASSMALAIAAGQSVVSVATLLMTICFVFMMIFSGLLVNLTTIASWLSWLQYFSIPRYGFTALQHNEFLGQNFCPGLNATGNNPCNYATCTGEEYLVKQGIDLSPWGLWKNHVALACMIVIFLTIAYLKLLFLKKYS
In words: Inhibition of BCRP expressed in MCF-7 MX cells using Hoechst 33342 staining. The test is classed as cell-based, MCF7. Particulars: read-out: IC50.

Test [3] addresses T1, Broad substrate specificity ATP-binding cassette transporter ABCG2. In words: Inhibition of BCRP expressed in MDCK cells using Hoechst 33342 staining. The conditions noted are these: read-out: IC50. The class given is cell-based.
For test [4], the target named is ATP-dependent translocase ABCB1 (Homo sapiens, UniProt P08183). In words: Inhibition of MDR1 expressed in MDCK cells using rhodamine 123 staining by flow cytometry. The class given is cell-based. (In general: In flow cytometry, cells or beads pass a laser one at a time.)
The subject of test [5] is MCF7. As to the kind of experiment: Cytotoxicity against human MCF7 cells assessed as intracellular ATP level after 72 hrs by luminometry. The conditions noted are these: MCF7, 72 h. The class given is functional, cell-based.
The test system of test [6] is A2780. In words: Cytotoxicity against human A2780 cells assessed as intracellular ATP level after 72 hrs by luminometry. The class given is functional, cell-based. Particulars: A2780, 72 h.
For test [7], the system named is MCF7. As to the kind of experiment: Cytotoxicity against human MCF7 cells assessed as intracellular ATP level at 10 uM after 72 hrs by luminometry. The class given is functional, cell-based.
Test [8] is described as follows: Inhibition of P-gp expressed in A2780adr cells by calcein AM accumulation assay. The test is classed as cell-based. The conditions noted are these: A2780 ADR.
In a further test the test system is A2780 ADR. In words: Inhibition of P-gp expressed in A2780adr cells at 10 uM by calcein AM accumulation assay relative to verapamil. The test is classed as cell-based.
Test [9] deals with A2780. In words: Cytotoxicity against human A2780 cells assessed as intracellular ATP level at 10 uM after 72 hrs by luminometry. The test is classed as functional, cell-based.

Active and inactive are the calls of the source. No cut-off for these calls is given here.

Multidrug resistance-associated protein 1, sequence (P33527 whole entry): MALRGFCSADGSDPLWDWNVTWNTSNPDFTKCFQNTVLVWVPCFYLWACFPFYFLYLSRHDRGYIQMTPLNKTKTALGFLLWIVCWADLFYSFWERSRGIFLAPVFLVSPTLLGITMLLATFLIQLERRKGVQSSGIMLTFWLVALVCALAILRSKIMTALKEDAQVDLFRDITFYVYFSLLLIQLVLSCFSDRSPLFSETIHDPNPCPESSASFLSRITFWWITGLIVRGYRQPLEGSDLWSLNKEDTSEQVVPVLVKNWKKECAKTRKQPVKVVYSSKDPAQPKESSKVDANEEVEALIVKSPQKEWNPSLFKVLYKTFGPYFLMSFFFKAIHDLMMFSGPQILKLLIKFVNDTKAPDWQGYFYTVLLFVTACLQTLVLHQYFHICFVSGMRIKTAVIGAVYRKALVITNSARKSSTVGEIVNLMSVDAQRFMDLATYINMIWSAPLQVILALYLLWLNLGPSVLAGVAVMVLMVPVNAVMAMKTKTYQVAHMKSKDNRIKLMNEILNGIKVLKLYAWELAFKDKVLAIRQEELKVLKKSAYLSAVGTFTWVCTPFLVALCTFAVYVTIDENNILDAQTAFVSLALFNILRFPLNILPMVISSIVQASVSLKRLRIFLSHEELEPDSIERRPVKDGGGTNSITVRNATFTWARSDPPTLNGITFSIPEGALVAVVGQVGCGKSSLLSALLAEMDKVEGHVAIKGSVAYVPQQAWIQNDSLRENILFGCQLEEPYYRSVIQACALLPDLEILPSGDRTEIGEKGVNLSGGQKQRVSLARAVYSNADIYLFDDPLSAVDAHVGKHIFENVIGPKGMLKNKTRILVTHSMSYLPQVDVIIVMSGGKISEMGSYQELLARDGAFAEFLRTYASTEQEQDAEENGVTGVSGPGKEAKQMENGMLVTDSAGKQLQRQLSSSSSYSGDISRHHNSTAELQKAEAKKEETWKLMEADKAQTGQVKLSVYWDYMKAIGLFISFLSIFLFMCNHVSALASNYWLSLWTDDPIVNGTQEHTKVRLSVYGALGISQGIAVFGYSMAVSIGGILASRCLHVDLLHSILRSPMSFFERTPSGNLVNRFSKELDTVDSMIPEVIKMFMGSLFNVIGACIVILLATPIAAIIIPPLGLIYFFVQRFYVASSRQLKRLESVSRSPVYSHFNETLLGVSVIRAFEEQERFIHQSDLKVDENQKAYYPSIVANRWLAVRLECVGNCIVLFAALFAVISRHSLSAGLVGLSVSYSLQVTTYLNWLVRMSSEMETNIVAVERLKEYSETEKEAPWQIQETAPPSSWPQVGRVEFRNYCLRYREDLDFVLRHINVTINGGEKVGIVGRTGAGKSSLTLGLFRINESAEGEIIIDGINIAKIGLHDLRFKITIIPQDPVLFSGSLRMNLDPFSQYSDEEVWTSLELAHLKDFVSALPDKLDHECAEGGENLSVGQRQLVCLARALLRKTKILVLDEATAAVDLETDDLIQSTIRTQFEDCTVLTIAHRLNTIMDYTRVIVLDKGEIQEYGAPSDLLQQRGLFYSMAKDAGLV
ATP-dependent translocase ABCB1, sequence (P08183 whole entry): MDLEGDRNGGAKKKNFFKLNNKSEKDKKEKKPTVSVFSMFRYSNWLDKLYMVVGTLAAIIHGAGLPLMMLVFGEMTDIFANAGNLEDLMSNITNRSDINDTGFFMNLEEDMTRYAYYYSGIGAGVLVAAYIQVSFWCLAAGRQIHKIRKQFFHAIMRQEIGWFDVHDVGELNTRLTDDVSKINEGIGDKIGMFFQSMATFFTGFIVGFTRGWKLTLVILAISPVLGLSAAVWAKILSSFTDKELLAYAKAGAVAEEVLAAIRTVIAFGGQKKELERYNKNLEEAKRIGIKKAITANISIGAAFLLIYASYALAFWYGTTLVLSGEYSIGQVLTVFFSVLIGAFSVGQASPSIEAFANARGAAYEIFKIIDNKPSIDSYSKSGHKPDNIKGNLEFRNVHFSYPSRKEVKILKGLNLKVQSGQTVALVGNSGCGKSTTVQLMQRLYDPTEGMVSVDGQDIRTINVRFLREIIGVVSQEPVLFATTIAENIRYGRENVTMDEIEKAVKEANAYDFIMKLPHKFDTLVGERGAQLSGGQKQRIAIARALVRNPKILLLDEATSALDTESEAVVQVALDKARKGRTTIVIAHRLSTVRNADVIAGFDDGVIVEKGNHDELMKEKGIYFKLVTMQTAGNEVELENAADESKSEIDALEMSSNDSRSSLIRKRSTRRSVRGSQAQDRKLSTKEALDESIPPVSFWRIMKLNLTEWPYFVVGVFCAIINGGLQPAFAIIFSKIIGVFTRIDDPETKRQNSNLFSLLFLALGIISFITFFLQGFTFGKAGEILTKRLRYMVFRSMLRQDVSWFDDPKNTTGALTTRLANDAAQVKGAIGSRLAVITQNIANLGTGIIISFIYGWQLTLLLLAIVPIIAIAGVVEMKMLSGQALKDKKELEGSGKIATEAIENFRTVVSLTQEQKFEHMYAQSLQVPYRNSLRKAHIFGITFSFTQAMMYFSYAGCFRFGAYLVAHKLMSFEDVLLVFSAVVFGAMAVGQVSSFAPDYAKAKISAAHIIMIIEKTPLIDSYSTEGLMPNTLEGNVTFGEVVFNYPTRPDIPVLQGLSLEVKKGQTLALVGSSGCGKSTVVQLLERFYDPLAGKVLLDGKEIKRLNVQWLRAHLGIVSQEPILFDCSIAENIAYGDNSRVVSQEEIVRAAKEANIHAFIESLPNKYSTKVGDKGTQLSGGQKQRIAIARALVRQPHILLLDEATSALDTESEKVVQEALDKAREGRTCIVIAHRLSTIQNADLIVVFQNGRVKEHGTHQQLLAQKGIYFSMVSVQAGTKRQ

Turning to `COc1ccc2c(c1)c(CC(=O)O)c(C)n2C(=O)c1ccc(Cl)cc1` [INDOMETHACIN], in test [1], the IC50 is 12.6 µM.
In the case of `COC1=C(OC)[C@]2(OC)c3c(OC)c(OC)c4c(c3O[C@@]23O[C@@H](c2ccccc2)CC=C3C1=O)[C@@H](OC)C[C@H](c1ccccc1)O4`, the IC50 in test [2] was 47 µM; in [3] it was 16 µM; in [4], 1.4 µM; in the test with MCF7 [5] it was 1.9 µM; with A2780 [6] (read-out: IC50) it was 1.7 µM; with A2780 [6] (read-out: pIC50 (converted)), 2.14 µM. The IC50 in test [8] was 1.7 µM. Further, the result in the test with MCF7 [7] and in the test on A2780 [9] was Active. The inhibition result with A2780 ADR was “inactive”.
As for `COc1cc(O)c2c(=O)c(OC)c(-c3ccc(OC)c(O)c3)oc2c1` [AYANIN], the IC50 in [2] was 0.68 µM; in test [3], 0.46 µM; in test [4], 13 µM; in test [1] it was 50 µM; in [8], 9.4 µM. The outcome in the test on MCF7 [7] and with A2780 [9] was inactive. Moreover, the inhibition entry in the test on A2780 ADR is “inactive”.
In the case of `COc1cc(O)c2c(=O)c(OC)c(-c3ccc(OC)c(OC)c3)oc2c1` [RETUSIN], the IC50 in test [2] was 0.9 µM; in test [3], 0.39 µM; in test [4] it was 16 µM; in [1], 50 µM; in [8], 12 µM. Besides, the result in the test with MCF7 [7] and in the test with A2780 [9] was inactive. Further, the inhibition result in the test with A2780 ADR is “inactive”.
For `COc1cccc2c1C(=O)c1c(O)c3c(c(O)c1C2=O)C[C@@](O)(C(=O)CO)C[C@@H]3O[C@H]1C[C@H](N)[C@H](O)[C@H](C)O1` [DOXORUBICIN], the IC50 in the test on MCF7 [5] worked out at 0.1 µM; in the test on A2780 [6] (read-out: IC50), 0.044 µM.
As for `COc1c2c(c3c(c1OC)[C@@]1(OC)C4=C(C(=O)[C@H](OC)[C@@]1(OC)O3)[C@H](OC)C[C@@H](c1ccccc1)O4)[C@H](O)C[C@@H](c1ccccc1)O2` [CALYFLORENON B], the IC50 was 40 µM in [2]; 29 µM in [3]; 8 µM in [4]; 15 µM in the test with MCF7 [5]; 11 µM with A2780 [6] (read-out: IC50); 5.6 µM in [8]. For the same compound, the outcome in the test with MCF7 [7] and in the test on A2780 [9] was Active. Also, the inhibition result with A2780 ADR was “inactive”.
With `COC1=C(OC)[C@]2(OC)c3c(OC)c(OC)c4c(c3O[C@@]23O[C@@H](c2ccccc2)CC=C3C1=O)[C@@H](O)C[C@H](c1ccccc1)O4` [NEOCALYCOPTERON], the IC50 in [2] was 15 µM; in test [3], 11 µM; in test [4], 8 µM; in the test on MCF7 [5], 2.4 µM; in the test on A2780 [6] (read-out: IC50), 2.4 µM; in test [8] it was 12 µM. In addition, the result in the test with MCF7 [7] and in the test with A2780 [9] was Active. In addition, the inhibition result in the test with A2780 ADR is “inactive”.
For the compound `COc1ccc(-c2cc(=O)c3c(OC)c(OC)c(OC)cc3o2)cc1OC` [SINENSETIN], the IC50 is 8.3 µM in [2], 9 µM in test [3], 29 µM in test [4] and 34 µM in test [8]. In addition, the result in the test on MCF7 [7] and in the test with A2780 [9] was inactive. Also, in the test on A2780 ADR, the inhibition result is “inactive”.

The values above are taken from ChEMBL document CHEMBL1681785, “Structure-activity relationships of flavonoids as inhibitors of breast cancer resistance protein (BCRP)” (Bioorg Med Chem, 2011).
